Experimental data taken from ChEMBL document CHEMBL1136174, “Synthesis and antimycobacterial activity of capuramycin analogues. Part 1: substitution of the azepan-2-one moiety of capuramycin” (Bioorg Med Chem Lett, 2003).
≈ marks a conversion by molar mass, not a printed value.

Key:
[1] = system: Mycolicibacterium smegmatis; assay: Antimycobacterial activity against Mycobacterium smegmatis (SANK 75075); assay type: functional
[2] = biological target: T1, Phospho-N-acetylmuramoyl-pentapeptide-transferase (Escherichia coli K-12, UniProt P0A6W3); assay: Inhibitory activity against translocase I
T1 sequence (P0A6W3 whole entry): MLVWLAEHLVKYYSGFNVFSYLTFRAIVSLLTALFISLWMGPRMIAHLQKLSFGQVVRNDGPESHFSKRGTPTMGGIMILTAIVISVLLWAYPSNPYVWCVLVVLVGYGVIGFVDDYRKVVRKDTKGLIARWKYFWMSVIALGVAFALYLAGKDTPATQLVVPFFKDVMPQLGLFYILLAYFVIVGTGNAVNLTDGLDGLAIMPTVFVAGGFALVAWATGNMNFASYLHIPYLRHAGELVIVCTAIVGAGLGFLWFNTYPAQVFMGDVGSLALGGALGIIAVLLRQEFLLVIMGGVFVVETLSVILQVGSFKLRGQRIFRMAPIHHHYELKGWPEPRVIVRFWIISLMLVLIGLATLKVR

Row | SMILES | MIC [1] [µg/mL] | IC50 [2] [nM]
1 | CO[C@H]1[C@@H](O)[C@H](n2ccc(=O)[nH]c2=O)O[C@@H]1[C@@H](O[C@H]1OC(C(=O)NCCc2cccc(Cl)c2)=C[C@H](O)[C@@H]1O)C(N)=O | 12.5 (≈ 20.9 µM) | 33.5
2 | CO[C@H]1[C@@H](O)[C@H](n2ccc(=O)[nH]c2=O)O[C@@H]1[C@@H](O[C@H]1OC(C(=O)Nc2ccc(C(F)(F)F)cc2)=C[C@H](O)[C@@H]1O)C(N)=O | 12.5 (≈ 20.7 µM) | 
3 | CO[C@H]1[C@@H](O)[C@H](n2ccc(=O)[nH]c2=O)O[C@@H]1[C@@H](O[C@H]1OC(C(=O)N(C)c2ccccc2)=C[C@H](O)[C@@H]1O)C(N)=O | > 100 | > 4560
4 | CO[C@H]1[C@@H](O)[C@H](n2ccc(=O)[nH]c2=O)O[C@@H]1[C@@H](O[C@H]1OC(C(=O)Nc2ccc([N+](=O)[O-])cc2)=C[C@H](O)[C@@H]1O)C(N)=O | 25 (≈ 43.1 µM) | 69
5 | CO[C@H]1[C@@H](O)[C@H](n2ccc(=O)[nH]c2=O)O[C@@H]1[C@@H](O[C@H]1OC(C(=O)NCc2ccc(F)cc2)=C[C@H](O)[C@@H]1O)C(N)=O | 50 (≈ 88.3 µM) | 353
6 | CO[C@H]1[C@@H](O)[C@H](n2ccc(=O)[nH]c2=O)O[C@@H]1[C@@H](O[C@H]1OC(C(=O)NCC(c2ccccc2)c2ccccc2)=C[C@H](O)[C@@H]1O)C(N)=O | > 100 | 204
7 | CCCCCCc1ccc(NC(=O)C2=C[C@H](O)[C@H](O)[C@@H](O[C@@H](C(N)=O)[C@H]3O[C@@H](n4ccc(=O)[nH]c4=O)[C@H](O)[C@@H]3OC)O2)cc1 | 12.5 (≈ 20.2 µM) | 259
8 | CO[C@H]1[C@@H](O)[C@H](n2ccc(=O)[nH]c2=O)O[C@@H]1[C@@H](O[C@H]1OC(C(=O)NCc2ccc(C)cc2)=C[C@H](O)[C@@H]1O)C(N)=O | 50 (≈ 88.9 µM) | 2130
9 | COc1ccc(CCNC(=O)C2=C[C@H](O)[C@H](O)[C@@H](O[C@@H](C(N)=O)[C@H]3O[C@@H](n4ccc(=O)[nH]c4=O)[C@H](O)[C@@H]3OC)O2)cc1 | 25 (≈ 42.2 µM) | 67.5
10 | CO[C@H]1[C@@H](O)[C@H](n2ccc(=O)[nH]c2=O)O[C@@H]1[C@@H](O[C@H]1OC(C(=O)NCc2ccc3ccccc3c2)=C[C@H](O)[C@@H]1O)C(N)=O | 25 (≈ 41.8 µM) | 184
11 | CO[C@H]1[C@@H](O)[C@H](n2ccc(=O)[nH]c2=O)O[C@@H]1[C@@H](O[C@H]1OC(C(=O)NCCc2ccc(O)cc2)=C[C@H](O)[C@@H]1O)C(N)=O | 50 (≈ 86.4 µM) | 104
12 | CO[C@H]1[C@@H](O)[C@H](n2ccc(=O)[nH]c2=O)O[C@@H]1[C@@H](O[C@H]1OC(C(=O)Nc2nc(C(C)(C)C)cs2)=C[C@H](O)[C@@H]1O)C(N)=O | 100 (≈ 167 µM) | 25.1
13 | CO[C@H]1[C@@H](O)[C@H](n2ccc(=O)[nH]c2=O)O[C@@H]1[C@@H](O[C@H]1OC(C(=O)N[C@@H](C)c2ccccc2)=C[C@H](O)[C@@H]1O)C(N)=O | 50 (≈ 88.9 µM) | 231
14 | CCCCCCCCCCCCNC(=O)C1=C[C@H](O)[C@H](O)[C@@H](O[C@@H](C(N)=O)[C@H]2O[C@@H](n3ccc(=O)[nH]c3=O)[C@H](O)[C@@H]2OC)O1 | 25 (≈ 39.9 µM) | 622
15 | CO[C@H]1[C@@H](O)[C@H](n2ccc(=O)[nH]c2=O)O[C@@H]1[C@@H](O[C@H]1OC(C(=O)NCCc2ccc(C)cc2)=C[C@H](O)[C@@H]1O)C(N)=O | 50 (≈ 86.7 µM) | 59
16 | CO[C@H]1[C@@H](O)[C@H](n2ccc(=O)[nH]c2=O)O[C@@H]1[C@@H](O[C@H]1OC(C(=O)NCCc2ccc(Cl)cc2)=C[C@H](O)[C@@H]1O)C(N)=O | 25 (≈ 41.9 µM) | 33.5
17 | CO[C@H]1[C@@H](O)[C@H](n2ccc(=O)[nH]c2=O)O[C@@H]1[C@@H](O[C@H]1OC(C(=O)NCc2ccc3c(c2)OCO3)=C[C@H](O)[C@@H]1O)C(N)=O | 50 (≈ 84.4 µM) | 338
18 | CO[C@H]1[C@@H](O)[C@H](n2ccc(=O)[nH]c2=O)O[C@@H]1[C@@H](O[C@H]1OC(C(=O)NCCc2ccc(F)cc2)=C[C@H](O)[C@@H]1O)C(N)=O | 12.5 (≈ 21.5 µM) | 37.9
19 | CO[C@H]1[C@@H](O)[C@H](n2ccc(=O)[nH]c2=O)O[C@@H]1[C@@H](O[C@H]1OC(C(=O)NCCc2ccccc2)=C[C@H](O)[C@@H]1O)C(N)=O | 12.5 (≈ 22.2 µM) | 37.3
20 | CCCCCCCCCCNC(=O)C1=C[C@H](O)[C@H](O)[C@@H](O[C@@H](C(N)=O)[C@H]2O[C@@H](n3ccc(=O)[nH]c3=O)[C@H](O)[C@@H]2OC)O1 | 25 (≈ 41.8 µM) | 434

Other lines, results leading:

Row | MIC [1] [µg/mL] | IC50 [2] [nM] | SMILES
21 | 50 (≈ 86.4 µM) | 64 | CCOc1ccccc1NC(=O)C1=C[C@H](O)[C@H](O)[C@@H](O[C@@H](C(N)=O)[C@H]2O[C@@H](n3ccc(=O)[nH]c3=O)[C@H](O)[C@@H]2OC)O1
22 | 12.5 (≈ 24.3 µM) | 544 | CCCCNC(=O)C1=C[C@H](O)[C@H](O)[C@@H](O[C@@H](C(N)=O)[C@H]2O[C@@H](n3ccc(=O)[nH]c3=O)[C@H](O)[C@@H]2OC)O1
23 | 100 (≈ 182 µM) | 655 | CO[C@H]1[C@@H](O)[C@H](n2ccc(=O)[nH]c2=O)O[C@@H]1[C@@H](O[C@H]1OC(C(=O)NCc2ccccn2)=C[C@H](O)[C@@H]1O)C(N)=O
24 | > 100 | > 4730 | CCCCN(C)C(=O)C1=C[C@H](O)[C@H](O)[C@@H](O[C@@H](C(N)=O)[C@H]2O[C@@H](n3ccc(=O)[nH]c3=O)[C@H](O)[C@@H]2OC)O1
25 | 100 (≈ 199 µM) | 1200 | CO[C@H]1[C@@H](O)[C@H](n2ccc(=O)[nH]c2=O)O[C@@H]1[C@@H](O[C@H]1OC(C(=O)NCCN)=C[C@H](O)[C@@H]1O)C(N)=O
26 | > 100 | 179 | CO[C@H]1[C@@H](O)[C@H](n2ccc(=O)[nH]c2=O)O[C@@H]1[C@@H](O[C@H]1OC(C(=O)NCCO)=C[C@H](O)[C@@H]1O)C(N)=O
27 | 12.5 (≈ 22.8 µM) | 23.7 | CO[C@H]1[C@@H](O)[C@H](n2ccc(=O)[nH]c2=O)O[C@@H]1[C@@H](O[C@H]1OC(C(=O)Nc2ccc(C)cc2)=C[C@H](O)[C@@H]1O)C(N)=O
28 | 100 (≈ 186 µM) | 520 | CO[C@H]1[C@@H](O)[C@H](n2ccc(=O)[nH]c2=O)O[C@@H]1[C@@H](O[C@H]1OC(C(=O)NCc2ccco2)=C[C@H](O)[C@@H]1O)C(N)=O
29 | 12.5 (≈ 21.9 µM) | 22.8 | CO[C@H]1[C@@H](O)[C@H](n2ccc(=O)[nH]c2=O)O[C@@H]1[C@@H](O[C@H]1OC(C(=O)Nc2cccc(F)c2F)=C[C@H](O)[C@@H]1O)C(N)=O
30 | 12.5 (≈ 23 µM) | 55.3 | CCCCCCNC(=O)C1=C[C@H](O)[C@H](O)[C@@H](O[C@@H](C(N)=O)[C@H]2O[C@@H](n3ccc(=O)[nH]c3=O)[C@H](O)[C@@H]2OC)O1
31 | 25 (≈ 46.2 µM) | 33.2 | CO[C@H]1[C@@H](O)[C@H](n2ccc(=O)[nH]c2=O)O[C@@H]1[C@@H](O[C@H]1OC(C(=O)Nc2nccs2)=C[C@H](O)[C@@H]1O)C(N)=O
32 | 25 (≈ 44.4 µM) | 107 | CO[C@H]1[C@@H](O)[C@H](n2ccc(=O)[nH]c2=O)O[C@@H]1[C@@H](O[C@H]1OC(C(=O)Nc2ccc(C)cc2C)=C[C@H](O)[C@@H]1O)C(N)=O
33 | > 100 | 381 | CNC(=O)C1=C[C@H](O)[C@H](O)[C@@H](O[C@@H](C(N)=O)[C@H]2O[C@@H](n3ccc(=O)[nH]c3=O)[C@H](O)[C@@H]2OC)O1
34 | 12.5 (≈ 23.1 µM) | 55.5 | CO[C@H]1[C@@H](O)[C@H](n2ccc(=O)[nH]c2=O)O[C@@H]1[C@@H](O[C@H]1OC(C(=O)NC2CCCCC2)=C[C@H](O)[C@@H]1O)C(N)=O
35 | 25 (≈ 44 µM) | 22.9 | CO[C@H]1[C@@H](O)[C@H](n2ccc(=O)[nH]c2=O)O[C@@H]1[C@@H](O[C@H]1OC(C(=O)NCCc2cccs2)=C[C@H](O)[C@@H]1O)C(N)=O
36 | 50 (≈ 88.9 µM) | 96 | CCc1ccccc1NC(=O)C1=C[C@H](O)[C@H](O)[C@@H](O[C@@H](C(N)=O)[C@H]2O[C@@H](n3ccc(=O)[nH]c3=O)[C@H](O)[C@@H]2OC)O1
37 | 12.5 (≈ 22.2 µM) | 35.6 | CCc1ccc(NC(=O)C2=C[C@H](O)[C@H](O)[C@@H](O[C@@H](C(N)=O)[C@H]3O[C@@H](n4ccc(=O)[nH]c4=O)[C@H](O)[C@@H]3OC)O2)cc1
38 | > 100 | 194 | CO[C@H]1[C@@H](O)[C@H](n2ccc(=O)[nH]c2=O)O[C@@H]1[C@@H](O[C@H]1OC(C(=O)Nc2nncs2)=C[C@H](O)[C@@H]1O)C(N)=O
39 | 25 (≈ 45.1 µM) | 48.7 | CO[C@H]1[C@@H](O)[C@H](n2ccc(=O)[nH]c2=O)O[C@@H]1[C@@H](O[C@H]1OC(C(=O)NC2CCCCCC2)=C[C@H](O)[C@@H]1O)C(N)=O
40 | 50 (≈ 90.2 µM) | 139 | CO[C@H]1[C@@H](O)[C@H](n2ccc(=O)[nH]c2=O)O[C@@H]1[C@@H](O[C@H]1OC(C(=O)NCc2cccs2)=C[C@H](O)[C@@H]1O)C(N)=O
41 | 25 (≈ 44.4 µM) | 195 | CO[C@H]1[C@@H](O)[C@H](n2ccc(=O)[nH]c2=O)O[C@@H]1[C@@H](O[C@H]1OC(C(=O)NCCc2ccccn2)=C[C@H](O)[C@@H]1O)C(N)=O
42 | 25 (≈ 44.3 µM) | 54.9 | COc1ccccc1NC(=O)C1=C[C@H](O)[C@H](O)[C@@H](O[C@@H](C(N)=O)[C@H]2O[C@@H](n3ccc(=O)[nH]c3=O)[C@H](O)[C@@H]2OC)O1
43 | 12.5 (≈ 21.9 µM) | 26.3 | CO[C@H]1[C@@H](O)[C@H](n2ccc(=O)[nH]c2=O)O[C@@H]1[C@@H](O[C@H]1OC(C(=O)Nc2ccc(F)cc2F)=C[C@H](O)[C@@H]1O)C(N)=O
44 | 100 (≈ 184 µM) | 257 | CCOCCCNC(=O)C1=C[C@H](O)[C@H](O)[C@@H](O[C@@H](C(N)=O)[C@H]2O[C@@H](n3ccc(=O)[nH]c3=O)[C@H](O)[C@@H]2OC)O1
